According to ChEMBL document CHEMBL2202952, “Marthiapeptide A, an anti-infective and cytotoxic polythiazole cyclopeptide from a 60 L scale fermentation of the deep sea-derived Marinactinospora thermotolerans SCSIO 00652” (J Nat Prod, 2012):
In brackets after ≈: the same amount, converted by molar mass. Activity calls are given as the source filed them. The calls are words filed in the database; no cut-off is given here.

Columns and labels:
Nucleic Acid [1] = assay: Binding affinity to human telomeric intramolecular HTG21 G-quadruplex DNA at 20 uM by CD spectroscopy; format: nucleic-acid assay
Nucleic Acid [2] = assay: Effect on F21T G-quadruplex DNA thermal stabilization assessed as change in melting temperature at 2 uM by FRET; format: nucleic-acid assay
HepG2 [3] = assay: Potency index, ratio of IC50 for cisplatin to IC50 for test compound against human HepG2 cells by SRB method; format: functional
NCI-H460 [4] = assay: Potency index, ratio of IC50 for cisplatin to IC50 for test compound against human NCI-H460 cells by SRB method; format: functional
MCF7 [5] = assay: Potency index, ratio of IC50 for cisplatin to IC50 for test compound against human MCF7 cells by SRB method; format: functional
SF-268 [6] = assay: Potency index, ratio of IC50 for cisplatin to IC50 for test compound against human SF268 cells by SRB method; format: functional
NCI-H460 [7] = assay: Cytotoxicity against human NCI-H460 cells by SRB method; format: functional, cell-based
HepG2 [8] = assay: Cytotoxicity against human HepG2 cells by SRB method; format: functional, cell-based
MCF7 [9] = assay: Cytotoxicity against human MCF7 cells by SRB method; format: functional, cell-based
SF-268 [10] = assay: Cytotoxicity against human SF268 cells by SRB method; format: functional, cell-based
Escherichia coli [11] = assay: Antimicrobial activity against Escherichia coli DH5[alpha]; format: functional
Escherichia coli [12] = assay: Antimicrobial activity against Escherichia coli ATCC 25922; format: functional
[13] = Antimicrobial activity against Aeromonas hydrophila subsp. hydrophila ATCC 7966; format: functional
Bacillus thuringiensis = assay: Antimicrobial activity against Bacillus thuringiensis; format: functional
Bacillus subtilis = assay: Antimicrobial activity against Bacillus subtilis ATCC 6633; format: functional
Staphylococcus aureus = assay: Antimicrobial activity against Staphylococcus aureus ATCC 29213; format: functional
Micrococcus luteus = assay: Antimicrobial activity against Micrococcus luteus; format: functional

| SMILES | Activity (Nucleic Acid [1]) | ΔTm (Nucleic Acid [2]) [°C] | Ratio IC50 (HepG2 [3]) | Ratio IC50 (NCI-H460 [4]) | Ratio IC50 (MCF7 [5]) | Ratio IC50 (SF-268 [6]) | IC50 (NCI-H460 [7]) [µM] | IC50 (HepG2 [8]) [µM] | IC50 (MCF7 [9]) [µM] | IC50 (SF-268 [10]) [µM] | MIC (Escherichia coli [11]) [µg/mL] | MIC (Escherichia coli [12]) [µg/mL] | MIC [13] [µg/mL] | MIC (Bacillus thuringiensis) [µg/mL] | MIC (Bacillus subtilis) [µg/mL] | MIC (Staphylococcus aureus) [µg/mL] | MIC (Micrococcus luteus) [µg/mL] |
| --- | --- | --- | --- | --- | --- | --- | --- | --- | --- | --- | --- | --- | --- | --- | --- | --- | --- |
| CC[C@H](C)[C@@H]1NC(=O)[C@@H](Cc2ccccc2)NC(=O)[C@@H]2CSC(=N2)c2csc(n2)-c2csc(n2)-c2csc(n2)[C@@H](C)NC1=O [MARTHIAPEPTIDE A] | inactive | 0.9 | 5 | 5 | 5 | 5 | 0.47 | 0.52 | 0.43 | 0.38 | > 128 | > 128 | > 128 | 2 (≈ 3 µM) | 4 (≈ 6.01 µM) | 8 (≈ 12 µM) | 2 (≈ 3 µM) |
| NC[C@H]1O[C@H](O[C@H]2[C@H](O)[C@@H](O[C@H]3O[C@H](CO)[C@@H](O)[C@H](N)[C@H]3O)[C@H](N)C[C@@H]2N)[C@H](O)[C@@H](O)[C@@H]1O [KANAMYCIN] |  |  |  |  |  |  |  |  |  |  | 32 (≈ 66 µM) | 16 (≈ 33 µM) | < 1 | 4 (≈ 8.26 µM) | < 1 | 8 (≈ 16.5 µM) | 32 (≈ 66 µM) |
| CC[C@H]1OC(=O)[C@H](C)[C@@H](O[C@H]2C[C@@](C)(OC)[C@@H](O)[C@H](C)O2)[C@H](C)[C@@H](O[C@@H]2O[C@H](C)C[C@H](N(C)C)[C@H]2O)[C@](C)(O)C[C@@H](C)C(=O)[C@H](C)[C@@H](O)[C@]1(C)O [ERYTHROMYCIN] |  |  |  |  |  |  |  |  |  |  | 64 (≈ 87.2 µM) | 32 (≈ 43.6 µM) | 4 (≈ 5.45 µM) | < 1 | < 1 | 16 (≈ 21.8 µM) | < 1 |
